Assay results reported in the NIST ThermoML archive (doi:10.1021/je060082s).
“And” between values parts separate entries of the source, which are not always exact repeats. Equal entries are not always repeated.

Settings: Liquid; for mass density: 101.33 kPa, Vibrating tube method

CCCCCCCC[n+]1ccn(C)c1.F[B-](F)(F)F [1-methyl-3-octylimidazolium tetrafluoroborate]
Settings | mass density [kg/m3]
273.1 K | 1120.96
278.1 K | 1117.48
283.1 K | 1114.01
288.15 K | 1110.55
293.15 K | 1107.11
298.15 K | 1103.68
303.15 K | 1100.24
313.15 K | 1093.37
323.15 K | 1086.56
333.15 K | 1079.83
343.15 K | 1073.18
353.15 K | 1066.6
363.15 K | 1060.08

Settings | viscosity
273.15 K, 100 kPa | 2291 mPa·s and 2289 mPa·s
278.15 K, 100 kPa | 1477 mPa·s and 1478 mPa·s
283.15 K, 100 kPa | 982 mPa·s
288.15 K, 100 kPa | 673 mPa·s
293.15 K, 100 kPa | 473 mPa·s
298.15 K, 100 kPa | 341 mPa·s
298.15 K, 11200 kPa | 393 mPa·s
298.15 K, 26200 kPa | 475.7 mPa·s
298.15 K, 50500 kPa | 638.3 mPa·s
298.15 K, 51500 kPa | 645.9 mPa·s
298.15 K, 60800 kPa | 720.1 mPa·s
298.15 K, 80200 kPa | 902.3 mPa·s
298.15 K, 100200 kPa | 1130 mPa·s
298.15 K, 116700 kPa | 1359 mPa·s
298.15 K, 117500 kPa | 1371 mPa·s
303.15 K, 100 kPa | 251 mPa·s
308.15 K, 100 kPa | 188.4 mPa·s [middle of 5 runs]
308.15 K, 800 kPa | 190.1 mPa·s
308.15 K, 2900 kPa | 194.9 mPa·s
308.15 K, 5600 kPa | 204.3 mPa·s
308.15 K, 10900 kPa | 214.2 mPa·s
308.15 K, 26000 kPa | 255.1 mPa·s
308.15 K, 50700 kPa | 337.1 mPa·s
308.15 K, 76200 kPa | 444 mPa·s
308.15 K, 100300 kPa | 571.1 mPa·s
308.15 K, 124400 kPa | 731.7 mPa·s
308.15 K, 150200 kPa | 945.5 mPa·s
308.15 K, 200100 kPa | 1527 mPa·s
313.15 K, 100 kPa | 144.1 mPa·s
323.15 K, 100 kPa | 88.8 mPa·s and 88.7 mPa·s
323.15 K, 700 kPa | 89.2 mPa·s
323.15 K, 4900 kPa | 93.5 mPa·s
323.15 K, 10500 kPa | 99.3 mPa·s
323.15 K, 25800 kPa | 118.2 mPa·s
323.15 K, 50800 kPa | 150.1 mPa·s
323.15 K, 75700 kPa | 191.2 mPa·s
323.15 K, 100600 kPa | 241.8 mPa·s
323.15 K, 125500 kPa | 303.1 mPa·s
323.15 K, 149900 kPa | 376.5 mPa·s
323.15 K, 175500 kPa | 469.8 mPa·s
323.15 K, 199800 kPa | 577.3 mPa·s
333.15 K, 100 kPa | 57.8 mPa·s
333.15 K, 10800 kPa | 64.4 mPa·s
333.15 K, 25700 kPa | 74.6 mPa·s
333.15 K, 50300 kPa | 94.3 mPa·s
333.15 K, 75600 kPa | 118.7 mPa·s
333.15 K, 100500 kPa | 147.7 mPa·s
333.15 K, 125300 kPa | 182.5 mPa·s
333.15 K, 150200 kPa | 224.3 mPa·s
333.15 K, 175100 kPa | 274.4 mPa·s
333.15 K, 200000 kPa | 334.1 mPa·s
343.15 K, 100 kPa | 39.4 mPa·s
348.15 K, 100 kPa | 32.8 mPa·s
348.15 K, 300 kPa | 32.7 mPa·s
348.15 K, 1600 kPa | 33.2 mPa·s
348.15 K, 3100 kPa | 33.7 mPa·s
348.15 K, 5400 kPa | 34.4 mPa·s
348.15 K, 10200 kPa | 36 mPa·s
348.15 K, 25600 kPa | 41.4 mPa·s
348.15 K, 50300 kPa | 51.5 mPa·s
348.15 K, 75600 kPa | 63.6 mPa·s
348.15 K, 100500 kPa | 77.7 mPa·s
348.15 K, 125400 kPa | 94.3 mPa·s
348.15 K, 150400 kPa | 114.3 mPa·s
348.15 K, 175300 kPa | 136.8 mPa·s
348.15 K, 200200 kPa | 163.6 mPa·s
348.15 K, 224200 kPa | 193.7 mPa·s
353.15 K, 100 kPa | 28.1 mPa·s

CCCCCCCC[n+]1ccn(C)c1.F[P-](F)(F)(F)(F)F [1-octyl-3-methylimidazolium hexafluorophosphate]
Settings | mass density
273.1 K | 1256.13 kg/m3
278.1 K | 1252.25 kg/m3
283.1 K | 1248.38 kg/m3
288.15 K | 1244.52 kg/m3
293.15 K | 1240.68 kg/m3
298.15 K | 1236.84 kg/m3 and 1236.75 kg/m3
303.15 K | 1233.01 kg/m3
313.15 K | 1225.34 kg/m3
323.15 K | 1217.7 kg/m3 and 1217.68 kg/m3
333.15 K | 1210.29 kg/m3
343.15 K | 1202.88 kg/m3
353.15 K | 1195.49 kg/m3
363.15 K | 1188.13 kg/m3

Settings | viscosity
273.15 K, 100 kPa | 6410 mPa·s
278.15 K, 100 kPa | 3889 mPa·s
283.15 K, 100 kPa | 2439 mPa·s
293.15 K, 100 kPa | 1065 mPa·s
298.15 K, 100 kPa | 734.4 mPa·s and 731.6 mPa·s
298.15 K, 10200 kPa | 853.7 mPa·s
298.15 K, 24600 kPa | 1041 mPa·s
298.15 K, 39900 kPa | 1299 mPa·s
303.15 K, 100 kPa | 519.3 mPa·s
308.15 K, 100 kPa | 374.6 mPa·s and 370.9 mPa·s
308.15 K, 5500 kPa | 404.3 mPa·s
308.15 K, 9900 kPa | 430.2 mPa·s
308.15 K, 25600 kPa | 531.2 mPa·s
308.15 K, 48400 kPa | 716.3 mPa·s
308.15 K, 74900 kPa | 1008 mPa·s
313.15 K, 100 kPa | 276.8 mPa·s
323.15 K, 100 kPa | 158 mPa·s and 159 mPa·s and 159.2 mPa·s
323.15 K, 24800 kPa | 217.5 mPa·s
323.15 K, 26300 kPa | 222 mPa·s
323.15 K, 49900 kPa | 295 mPa·s
323.15 K, 60500 kPa | 348.9 mPa·s
323.15 K, 74800 kPa | 395 mPa·s
323.15 K, 76000 kPa | 404.2 mPa·s
323.15 K, 99700 kPa | 524.6 mPa·s
333.15 K, 100 kPa | 97 mPa·s and 97.9 mPa·s and 97.8 mPa·s
333.15 K, 13500 kPa | 115.2 mPa·s
333.15 K, 30300 kPa | 140.6 mPa·s
333.15 K, 50400 kPa | 176.2 mPa·s
333.15 K, 75100 kPa | 230.4 mPa·s
333.15 K, 100400 kPa | 300.7 mPa·s
333.15 K, 125200 kPa | 387.3 mPa·s
343.15 K, 100 kPa | 63.7 mPa·s [middle of 4 runs]
343.15 K, 10000 kPa | 70 mPa·s
343.15 K, 21300 kPa | 81 mPa·s
343.15 K, 51800 kPa | 112.7 mPa·s
343.15 K, 72900 kPa | 138.7 mPa·s
343.15 K, 100300 kPa | 182.6 mPa·s
343.15 K, 125900 kPa | 233.7 mPa·s
343.15 K, 148800 kPa | 296.2 mPa·s
343.15 K, 175900 kPa | 378.4 mPa·s
353.15 K, 100 kPa | 43 mPa·s
